According to US10792384B2, “Rolled fibrous structures comprising encapsulated malodor reduction compositions” (The Procter & Gamble Company, priority 2017, dated 2020):

Assay: Blocker Index (BI), expert graders smelling isovaleric acid swatches treated with test material
Conditions: test material 50 ppm on swatch with 20 μL 0.08% isovaleric acid, scale 0-3
Text: Blocker materials suitable for use in consumer products of the present invention are chosen for their ability to decrease malodor, while not interfering with perception of a fragrance. Material selection is done by assigning two indices to a test sample material from two reference scales in order to rank odor strengths. The two reference scales are the Fragrance Fidelity Index (FFI) scale and the Blocker Index (BI) scale. The FFI ranks the ability of the test sample material to impart a perceivable odor which could cause interference when combined with another fragrance and the BI ranks the ability of the test sample material to reduce malodor perception. The two methods for assigning the indices to a test sample on the FFI and the BI reference scales are given below.
The first step in the method for assigning a BI to a test sample material on the BI reference scale is to create the BI reference swatches. […] Fabric swatches for this test are white knit polycotton (4 inch×4 inch) swatches from EMC ordered as PC 50/50. The supplier is instructed to strip the swatches first, stripping involves washing twice with a fragrance-free detergent and rinsing three times.
The BI scale contains one clean swatch with no malodor applied. […] These solutions are pipetted to the middle of the swatches. […]

**Q.** For `C=C/C(C)=C\CC=C(C)C` [Material 524], which BI is on record?
**A.** 2.8
